Experimental data taken from patent publication US20250388568A1, “NLRP3 INHIBITORS” (Kodiak Sciences Inc., priority 2022, published 2025).
Read-outs that look alike come from different tables or passages of the source.

Key:
[1] = system: IL-1β release in U937 cells after NLRP3 activation; assay: IC50 determination of IL-1β release inhibition in U937 cells; format: cell-based; details: Homo sapiens, read-out: IL-1β IC50 (nM) U937 cells
Description: Example 79: IC50 Determination of IL-1β Release Inhibition in U937 Cells The compounds of the present disclosure were tested for their ability to inhibit the IL-1β release in the U937 cells after NLRP3 activation. U937 cells (U-97 CRL 1593.2) were thawed following ATCC's initial culture procedure. […] The growth medium was composed of RPMI1640 medium (Quality Biological 112-040-101), 10% serum (Corning 35-076-CV), Pen/Strep (GIBCO 15140-122), 10 mM Hepes (Quality Biological 118-089-721), 2 mM Glutamax (GIBCO 35050-061), and 100 μg/mL normocin (Invivogen ant-nr)-Differentiating media was prepared by adding Phorbol 12-myristate 13-acetate (PMA) (AdipoGen AG-CN2-0010-M005) to growth medium. A cell suspension was prepared with differentiating media at 500k cells/ml. With an electronic pipet, 200 ul of cell suspension was added to each well (96w white plate Corning 3903) leaving columns 1 and 2 empty. Plates were left in the biosafety cabinet for 15 min and then placed in incubator for 90 hours. Priming media was prepared with assay medium consisting of RPMI 1640 medium, 10 mM Hepes, 2 mM Glutamax and Pen/Strep plus 1 μg/mL LPS (Invivogen tlrl-3pelps). Differentiating media was manually removed and 80 ul of priming media was added to each well with an electronic pipet. The plates were placed in the incubator for 5 hours. […] DMSO). An hour prior to the end of LPS incubation, a separate 96 deep well plate, Plate B, was prepared with 400 μL of assay media per well, then […] of the stock DMSO solution from Plate A was added to each corresponding well. Plate B was covered to avoid media evaporation. In a 50 mL tube, a solution of nigericin in assay media at 50 uM/mL concentration was prepared. To a new 96 deep well plate, Plate C, 200 μL of this nigericin containing media was dispensed to each well and 1 μL of the test compounds from Plate B to each corresponding well was added. Plate C was covered to avoid media evaporation. After 5 hours of priming, all the media from the LPS treated U937 cells was removed manually. To this plate of primed cells, 80 μL/well test compounds from Plate B (assay media+compound) was added in duplicate columns (5 compounds tested per plate). The plate was placed in an incubator for 30 min. […] The plate was placed back in the incubator for 1 hour. At the end of 1 hour, the supernatant from this test plate was transferred to a new 96 well V bottom polypropylene plate which was frozen immediately at -80° C. The plate was transferred to -20° C. the next day and awaited further determination of cytokine IL-Ip level. The release of IL-1β into the cell media was determined by MSD® Multi-Spot Assay System (V-Plex, IL-1B kit, […]-4). Following the manufacture's protocol and using the Alternate Protocol 3, Dilute-In-Plate protocol specifically, the level of IL-IP in the above collected supernatant plate was measured as electrochemiluminescent signals. Using MSD DISCOVERY WORKBENCH® analysis software, the signals were converted to the concentration of IL-1β in each well. The IC50 values of the compounds were calculated using the Graph Pad Prism software based on the IL-1β concentration determined. The detection range of IL-1β using MSD kit was approximately […] (based on various lots of standards purchased from MSD).

[2] = system: IL-1β release in THP-1-ASC-GFP cells after NLRP3 activation; assay: IC50 determination of IL-1β release inhibition in THP-1-ASC-GFP cells; format: cell-based; details: THP1-ASC-GFP, read-out: IL-1β IC50 (nM) THP1 cells
Description: Example 78: IC50 Determination of IL-1β Release Inhibition in THP-1-ASC-GFP Cells The compounds were tested for their ability to inhibit the IL-1β release in the THP-1-ASC-GFP cells after NLRP3 activation. THP1-ASC-GFP cells (Invivogen […] thawed following Invivogen's initial culture procedure. […] The growth medium was composed of RPM1640 medium (Gibco 32404-014), 10% heat inactivated (HI) serum (Gibco A3840102), Pen/Strep (Quality Biologics 118-089-721), 10 mM Hepes (Quality Biologics 118-089-721), 2 mM Glutamax (GIBCO 35050-061), 100 μg/mL normocin (Invivogen ant-nr), 100 μg/mL Zeocin (Invivogen ant-zn). The growth medium was freshly prepared once a week and sterile filtered. Assay medium consisted of RPMI 1640 medium, 10 mM Hepes, 2 mM Glutamax and Pen/Strep. To the assay medium, 1 μg/mL LPS (Invivogen tlrl-3pelps) was added. A cell suspension was prepared with assay medium and LPS at 1.25M cells per mL. With an electronic pipet, 80 μl of cell suspension was added to U bottom 96 well polystyrene plates (VWR 10062-902) leaving columns 1 and 2 empty. The plates were placed in the incubator for 4 hours. […] DMSO). An hour prior to the end of LPS incubation, a separate 96 deep well plate, Plate B, was prepared with 400 μL of assay media per well, then 2 μL of the stock DMSO solution from Plate A was added to each corresponding well. Plate B was covered to avoid media evaporation. In a 50 mL tube, a solution of nigericin in assay media at […] concentration was prepared. To a new 96 deep well plate, Plate C, 200 μL of this nigericin containing media was dispensed to each well and […] of the test compounds from Plate A to each corresponding well was added. Plate C was covered to avoid media evaporation. After 4 hours of priming, all the media from the LPS treated THP-1 cells in the initial U bottom plate was removed manually. To this plate of primed cells, 80 μL/well test compounds from Plate B was added in duplicate columns (5 compounds tested per plate). The plate was placed in an incubator for 30 min. […] The plate was placed back in the incubator for 1 hour. At the end of 1 hour, the supernatant from this test plate was transferred to a new 96 well V bottom polypropylene plate which was frozen immediately at -80° C. The plate was transferred to -20° C. the next day and awaiting further determination of cytokine IL-1β level. The release of IL-1β into the cell media was determined by MSD® Multi-Spot Assay System (V-Plex, IL-1B kit, […]-4). Following the manufacture's protocol and using the Alternate Protocol 3, Dilute-In-Plate protocol specifically, the level of IL-1β in the above collected supernatant plate was measured as electrochemiluminescent signals. Using MSD DISCOVERY WORKBENCH® analysis software, the signals were converted to the concentration of IL-1β in each well. The IC50 values of the compounds were calculated using the Graph Pad Prism software based on the […] concentration determined. The detection range of IL-1β using MSD kit was approximately […] (based on various lots of standards purchased from MSD).

[3] = U-937, PMA-differentiated U937 cells, LPS priming 5 h, nigericin, average of at least three experiments
[4] = THP-1-ASC-GFP cells, LPS priming 4 h, nigericin, average of at least three experiments

Q: With `O=C(Nc1c2c(cc3c1CCC3)CCC2)NS(=O)(=O)c1cc2c(o1)CCNC2` [Example 73, N-((1,2,3,5,6,7-hexahydro-s-indacen-4-yl)carbamoyl)-4,5,6,7-tetrahydrofuro[3,2-c]pyridine-2-sulfonamide] as the compound, how does the IC50 [1, 3] read?
A: 5 to 50 nM

Q: And the IC50 [2, 4]?
A: 5 to 50 nM

Q: How did the IC50 [1, 3] turn out when `CN(Cc1cc(S(=O)(=O)NC(=O)Nc2c3c(c(F)c4c2CCC4)CCC3)nn1C)CC1(O)CCC1` [Example 58, 3-(8-fluoro-1,2,3,5,6,7-hexahydro-s-indacen-4-yl)-1-[5-({[(1-hydroxycyclobutyl)methyl](methyl)amino}methyl)-1-methylpyrazol-3-ylsulfonyl]urea] was run?
A: 5 to 50 nM

Q: And the IC50 [2, 4]?
A: 50 to 500 nM

Q: What does the source list for `Cn1nc(S(=O)(=O)NC(=O)Nc2c3c(c(F)c4c2CCC4)CCC3)cc1CNCC1(O)CCC1` [Example 59, N-((8-fluoro-1,2,3,5,6,7-hexahydro-s-indacen-4-yl)carbamoyl)-5-((((1-hydroxycyclobutyl)methyl)amino)methyl)-1-methyl-1H-pyrazole-3-sulfonamide]?
A: IC50 [1, 3]: 5 to 50 nM; IC50 [2, 4]: 5 to 50 nM

Q: With `Cc1oc(S(=N)(=O)NC(=O)Nc2c3c(cc4c2CCC4)CCC3)cc1CNC(C)C` (centres unmarked) [Example 25, N-((1,2,3,5,6,7-hexahydro-s-indacen-4-yl)carbamoyl)-4-((isopropylamino)methyl)-5-methylfuran-2-sulfonimidamide] as the compound, how does the IC50 ([1]; U-937, 5 h) read?
A: < 5 nM

Q: What about the IC50 ([2]; 4 h) of the same compound?
A: < 5 nM

Q: For `O=C(Nc1c2c(cc3c1CCC3)CCC2)NS(=O)(=O)c1cc2c(o1)CCN(CCCO)C2` [Example 74, N-((1,2,3,5,6,7-hexahydro-s-indacen-4-yl)carbamoyl)-5-(3-hydroxypropyl)-4,5,6,7-tetrahydrofuro[3,2-c]pyridine-2-sulfonamide], which IC50 [1, 3] is on record?
A: 5 to 50 nM

Q: And the IC50 [2, 4]?
A: 5 to 50 nM

Q: Which results are given for `Cc1oc([S@@](=N)(=O)NC(=O)Nc2c3c(c(F)c4c2CCC4)CCC3)cc1CNC(C)C` (single isomer, unassigned) [Example 28]?
A: IC50 [1, 3]: 50 to 500 nM; IC50 [2, 4]: 50 to 500 nM

Q: Which IC50 [1, 3] does the source give for `CC(C)NCc1coc([S@](=N)(=O)NC(=O)Nc2c3c(c(F)c4c2CCC4)CCC3)c1` (single isomer, unassigned) [Example 31] here?
A: < 5 nM

Q: And the IC50 [2, 4]?
A: < 5 nM

Q: How did the IC50 [1, 3] turn out when `Cc1oc([S@](=N)(=O)NC(=O)Nc2c3c(c(F)c4c2CCC4)CCC3)cc1CNC(C)C` (single isomer, unassigned) [Example 29] was run?
A: < 5 nM

Q: And the IC50 [2, 4]?
A: < 5 nM

Q: What does the source list for `Cc1oc(S(=O)(=O)NC(=O)Nc2c3c(c(F)c4c2CCC4)CCC3)cc1CN1C[C@@H](O)[C@@H](F)C1` [Example 42, N-((8-fluoro-1,2,3,5,6,7-hexahydro-s-indacen-4-yl)carbamoyl)-4-(((3S,4R)-3-fluoro-4-hydroxypyrrolidin-1-yl)methyl)-5-methylfuran-2-sulfonamide]?
A: IC50 [1, 3]: 50 to 500 nM; IC50 [2, 4]: 5 to 50 nM

Q: For `Cc1oc(S(=O)(=O)NC(=O)Nc2c3c(c(F)c4c2CCC4)CCC3)cc1CN1CC[C@H](O)C1` [Example 38, (S)—N-((8-fluoro-1,2,3,5,6,7-hexahydro-s-indacen-4-yl)carbamoyl)-4-((3-hydroxypyrrolidin-1-yl)methyl)-5-methylfuran-2-sulfonamide], which IC50 ([1]; U-937, 5 h) is on record?
A: 50 to 500 nM

Q: What about the IC50 ([2]; 4 h) of the same compound?
A: 5 to 50 nM

Q: With `Cc1oc(S(=N)(=O)NC(=O)Nc2c3c(cc4c2CCC4)CCC3)cc1CN(C)CC1(CO)CCC1` (centres unmarked) [Example 9, N-((1,2,3,5,6,7-hexahydro-s-indacen-4-yl)carbamoyl)-4-((((1-(hydroxymethyl)cyclobutyl)methyl)(methyl)amino)methyl)-5-methylfuran-2-sulfonimidamide] as the compound, how does the IC50 [1, 3] read?
A: 5 to 50 nM

Q: What about the IC50 [2, 4] of the same compound?
A: < 5 nM

Q: With `CNCc1coc([S@@](=N)(=O)NC(=O)Nc2c3c(cc4c2CCC4)CCC3)c1` (single isomer, unassigned) [Example 76] as the compound, how does the IC50 [1, 3] read?
A: < 5 nM

Q: And the IC50 [2, 4]?
A: < 5 nM

Q: What does the source list for `Cc1oc(S(=N)(=O)NC(=O)Nc2c3c(cc4c2CCC4)CCC3)cc1CN(C)CC1(O)CC1` (centres unmarked) [Example 11, N-((1,2,3,5,6,7-hexahydro-s-indacen-4-yl)carbamoyl)-4-((((1-hydroxycyclopropyl)methyl)(methyl)amino)methyl)-5-methylfuran-2-sulfonimidamide]?
A: IC50 [1, 3]: 5 to 50 nM; IC50 [2, 4]: < 5 nM

Q: For `Cc1oc(S(=N)(=O)NC(=O)Nc2c3c(c(F)c4c2CCC4)CCC3)cc1CN(C)CC1(CO)CCC1` (centres unmarked) [Example 13, N-((8-fluoro-1,2,3,5,6,7-hexahydro-s-indacen-4-yl)carbamoyl)-4-((((1-(hydroxymethyl)cyclobutyl)methyl)(methyl)amino)methyl)-5-methylfuran-2-sulfonimidamide], which IC50 [1, 3] is on record?
A: 5 to 50 nM

Q: What about the IC50 [2, 4] of the same compound?
A: < 5 nM

Q: For `Cc1oc(S(=O)(=O)NC(=O)Nc2c3c(c(F)c4c2CCC4)CCC3)cc1CN1C[C@H](O)[C@@H](F)C1` [Example 41, N-((8-fluoro-1,2,3,5,6,7-hexahydro-s-indacen-4-yl)carbamoyl)-4-(((3S,4S)-3-fluoro-4-hydroxypyrrolidin-1-yl)methyl)-5-methylfuran-2-sulfonamide], which IC50 [1, 3] is on record?
A: 5 to 50 nM

Q: And the IC50 [2, 4]?
A: 5 to 50 nM

Q: With `CC(C)n1nc(S(=N)(=O)NC(=O)Nc2c3c(cc4c2CCC4)CCC3)cc1CN1CCC[C@H]1CO` (stereo partly drawn) [Example 21, N-((1,2,3,5,6,7-hexahydro-s-indacen-4-yl)carbamoyl)-5-(((S)-2-(hydroxymethyl)pyrrolidin-1-yl)methyl)-1-isopropyl-1H-pyrazole-3-sulfonimidamide] as the compound, how does the IC50 [1, 3] read?
A: < 5 nM

Q: What about the IC50 [2, 4] of the same compound?
A: < 5 nM
